Measurements taken from ChEMBL document CHEMBL1201862, “PubChem BioAssay data set” (2004).
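Exposure lasted 48 hours, with cells grown in 96-well plates and compounds tested at five concentrations. At the GI50, growth is halved.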 Active and inactive are the calls of the source. Cut-off read from the data, not from the text of the source: active = GI50 up to about 1.1 µM and inactive = higher.

Experiments:
Assay in all cases: NCI anticancer screen, dose series, 48 h
[1] = system: 786-0
[2] = system: UACC-62
[3] = system: COLO 205
[4] = system: T47D
[5] = system: K562
[6] = system: NCI-H522
[7] = system: NCI-H23
[8] = system: SF-295
[9] = system: RPMI-8226
[10] = system: DU-145
[11] = system: SW-620
[12] = system: UACC-257
[13] = system: A498
[14] = system: SR
[15] = system: SF-268
[16] = system: Malme-3M
[17] = system: MOLT-4
[18] = system: SK-OV-3
[19] = system: SNB-75
[20] = system: HCC 2998

Compound: CNC(=S)NNc1ncnc2c1ncn2-c1ccc(C)cc1
- GI50 [1]: > 100 µM (inactive)
- GI50 [2]: > 100 µM (inactive)
- GI50 [3]: > 100 µM (inactive)
- GI50 [4]: > 100 µM (inactive)
- GI50 [5]: > 100 µM (inactive)
- GI50 [6]: > 100 µM (inactive)
- GI50 [7]: > 100 µM (inactive)
- GI50 [8]: > 100 µM (inactive)
- GI50 [9]: > 100 µM (inactive)
- GI50 [10]: > 100 µM (inactive)
- GI50 [11]: > 100 µM (inactive)
- GI50 [12]: > 100 µM (inactive)
- GI50 [13]: > 100 µM (inactive)
- GI50 [14]: > 100 µM (inactive)
- GI50 [15]: > 100 µM (inactive)
- GI50 [16]: > 100 µM (inactive)
- GI50 [17]: > 100 µM (inactive)
- GI50 [18]: > 100 µM (inactive)

Compound: COc1cc(NC(C)=O)ccc1C(=O)NN1C(=O)C(Cl)C1c1ccco1 (stereo not given)
- GI50 [1]: > 100 µM (inactive)
- GI50 [2]: > 100 µM (inactive)
- GI50 [3]: 61.8 µM (inactive)
- GI50 [4]: > 100 µM (inactive)
- GI50 [5]: > 100 µM (inactive)
- GI50 [6]: > 100 µM (inactive)
- GI50 [7]: > 100 µM (inactive)
- GI50 [9]: > 100 µM (inactive)
- GI50 [10]: > 100 µM (inactive)
- GI50 [11]: > 100 µM (inactive)
- GI50 [13]: > 100 µM (inactive)
- GI50 [14]: 36.6 µM (inactive)
- GI50 [19]: > 100 µM (inactive)
- GI50 [15]: > 100 µM (inactive)
- GI50 [16]: > 100 µM (inactive)
- GI50 [17]: 31.9 µM (inactive)

Compound: c1cc(-c2ccc(-c3ccc(C4=NC5CCCCC5N4)cc3)o2)ccc1C1=NC2CCCCC2N1 (stereo not given)
- GI50 [1]: 1.49 µM (inactive)
- GI50 [2]: 1.71 µM (inactive)
- GI50 [3]: 1.5 µM (inactive)
- GI50 [4]: 1.98 µM (inactive)
- GI50 [5]: 1.42 µM (inactive)
- GI50 [6]: 1.61 µM (inactive)
- GI50 [7]: 1.58 µM (inactive)
- GI50 [8]: 1.84 µM (inactive)
- GI50 [9]: 1.76 µM (inactive)
- GI50 [10]: 1.6 µM (inactive)
- GI50 [11]: 2.56 µM (inactive)
- GI50 [12]: 1.75 µM (inactive)
- GI50 [13]: 2.86 µM (inactive)
- GI50 [19]: 1.68 µM (inactive)
- GI50 [15]: 1.55 µM (inactive)
- GI50 [16]: 1.73 µM (inactive)
- GI50 [17]: 1.8 µM (inactive)
- GI50 [18]: 1.64 µM (inactive)
- GI50 [20]: 1.3 µM (inactive)

Compound: COc1cc(C2SC(=N)Nc3c2c(C)nn3C(=O)c2ccccc2O)ccc1O (stereo not given)
- GI50 [1]: > 2.33 µM (inactive)
- GI50 [2]: 1.15 µM (inactive)
- GI50 [3]: > 5.55 µM (inactive)
- GI50 [4]: 0.971 µM (active)
- GI50 [5]: 1.46 µM (inactive)
- GI50 [6]: > 3.84 µM (inactive)
- GI50 [7]: > 2.3 µM (inactive)
- GI50 [8]: 1.28 µM (inactive)
- GI50 [9]: > 2.09 µM (inactive)
- GI50 [10]: 1.69 µM (inactive)
- GI50 [11]: > 4.71 µM (inactive)
- GI50 [12]: 0.94 µM (active)
- GI50 [13]: 4.51 µM (inactive)
- GI50 [19]: 1.04 µM (active)
- GI50 [15]: > 3.05 µM (inactive)
- GI50 [16]: 0.513 µM (active)
- GI50 [17]: > 2.28 µM (inactive)
- GI50 [18]: > 2.17 µM (inactive)
- GI50 [20]: > 6.62 µM (inactive)

Compound: CC1(C)CCC2=C(O1)/C(=N\Nc1ccccc1)c1ccccc1C2=O
- GI50 [1]: 15.8 µM (inactive)
- GI50 [2]: 34.6 µM (inactive)
- GI50 [3]: 31.8 µM (inactive)
- GI50 [4]: 18.8 µM (inactive)
- GI50 [5]: 39.9 µM (inactive)
- GI50 [6]: 29.4 µM (inactive)
- GI50 [7]: 34.8 µM (inactive)
- GI50 [8]: 24.9 µM (inactive)
- GI50 [9]: 31.4 µM (inactive)
- GI50 [10]: 29.8 µM (inactive)
- GI50 [11]: > 100 µM (inactive)
- GI50 [12]: 18.7 µM (inactive)
- GI50 [13]: 20 µM (inactive)
- GI50 [15]: 48.3 µM (inactive)
- GI50 [16]: 43.9 µM (inactive)
- GI50 [17]: 34 µM (inactive)
- GI50 [18]: 24.9 µM (inactive)

Compound: O=[N+]([O-])/C(C(Cl)=C(Cl)Cl)=C(\NCc1ccccc1)Sc1ccccc1
- GI50 [1]: 35.1 µM (inactive)
- GI50 [2]: 30.4 µM (inactive)
- GI50 [3]: 18.7 µM (inactive)
- GI50 [4]: 30.8 µM (inactive)
- GI50 [5]: 63 µM (inactive)
- GI50 [7]: 20.5 µM (inactive)
- GI50 [8]: 20.6 µM (inactive)
- GI50 [9]: 34.7 µM (inactive)
- GI50 [10]: 36.6 µM (inactive)
- GI50 [11]: 18.4 µM (inactive)
- GI50 [12]: 33.9 µM (inactive)
- GI50 [13]: 25.9 µM (inactive)
- GI50 [19]: 28.2 µM (inactive)
- GI50 [15]: 24.3 µM (inactive)
- GI50 [16]: 16.8 µM (inactive)
- GI50 [17]: > 100 µM (inactive)
- GI50 [18]: 34 µM (inactive)
- GI50 [20]: 34.9 µM (inactive)

Compound: COC(=O)C(=CNC(N)=O)C(=O)OC
- GI50 [1]: > 100 µM (inactive)
- GI50 [2]: > 100 µM (inactive)
- GI50 [3]: > 100 µM (inactive)
- GI50 [4]: > 100 µM (inactive)
- GI50 [5]: > 100 µM (inactive)
- GI50 [6]: > 100 µM (inactive)
- GI50 [7]: > 100 µM (inactive)
- GI50 [8]: > 100 µM (inactive)
- GI50 [9]: > 100 µM (inactive)
- GI50 [10]: > 100 µM (inactive)
- GI50 [11]: > 100 µM (inactive)
- GI50 [12]: > 100 µM (inactive)
- GI50 [14]: > 100 µM (inactive)
- GI50 [15]: > 100 µM (inactive)
- GI50 [17]: > 100 µM (inactive)

Compound: N#C[C@H]1Nc2ccccc2[C@@H](O)C1O (stereo not given in full)
- GI50 [1]: > 100 µM (inactive)
- GI50 [2]: > 100 µM (inactive)
- GI50 [3]: > 100 µM (inactive)
- GI50 [4]: > 100 µM (inactive)
- GI50 [5]: > 100 µM (inactive)
- GI50 [7]: > 100 µM (inactive)
- GI50 [8]: > 100 µM (inactive)
- GI50 [9]: > 100 µM (inactive)
- GI50 [10]: > 100 µM (inactive)
- GI50 [11]: > 100 µM (inactive)
- GI50 [12]: > 100 µM (inactive)
- GI50 [14]: > 100 µM (inactive)
- GI50 [19]: > 100 µM (inactive)
- GI50 [15]: > 100 µM (inactive)
- GI50 [16]: > 100 µM (inactive)
- GI50 [17]: > 100 µM (inactive)
- GI50 [18]: > 100 µM (inactive)
- GI50 [20]: > 100 µM (inactive)
